The results in this text go back to US20260284011A1, “COMPOUNDS FOR RESTORING SUSCEPTIBILITY TO BETA-LACTAM ANTIBIOTICS” (UNIVERSITY OF NOTRE DAME DU LAC, priority 2023, published 2026).

For series [1], the system named is S. aureus NRS144pCN52RI-Venus. Put plainly: Bacterial growth inhibition (OD600) in the fluorescent screening assay. The series is classed as cell-based, Staphylococcus aureus. The following applies: compound at 100 mg/L^−1; OD600 after 2 h. On the procedure:
The collection of the 100 compounds from the in-silico search was screened against S. aureus NRS144pCN52RI-Venus. The screening strategy was as follows. Bacteria grown to OD600 of 0.25 were exposed concurrently to CBAP (10 mg·L^−1) and the test compound (100 mg·L^−1). Fluorescence was recorded after two hours of incubation. OD600 values were also recorded to identify compounds with inherent antibacterial activity. Compound 1 (Chart 1) emerged—82% diminished fluorescence as an indication of the extent of BlaR inhibition—as a suitable template for structure elaboration. This effort led to the synthesis of several dozen benzimidazole and imidazole compounds. The progression of the iterative design is depicted in Chart 1 for four compounds, culminating in 4. […] The X-ray structures for the complexes of compounds 2 (non-covalent) and 4 (covalent) with the BlaR sensor domain are shown respectively in FIG. 2b (2.0 Å resolution) and FIG. 2c (1.97 Å resolution). Compound 4 makes a covalent bond with the catalytic Ser389 and creates a network of hydrogen bonds with the BlaR active site (FIG. 2c).
Fluorescent assay for screening of BlaR potential inhibitors. A 3-mL portion of lysogeny broth (LB) medium was inoculated with NRS144pCN52RI Venus from frozen stocks and grown overnight at 37° C. The overnight culture was then diluted 1:150 fold with fresh LB containing […] of erythromycin and incubated at 37° C. to an OD600 of 0.3, at which point fluorescence was induced by the addition of CBAP to a final concentration of 10 μg·mL^−1. The culture was aliquoted (99 L) into 96-well plate and 1 L of inhibitor solution (1 mg·mL^−1 in DMSO) was added to each well. Negative control (DMSO without CBAP) and positive control (CBAP without inhibitor) were included. The plate was incubated at 30° C. for 2 h with intermittent shaking. Fluorescence and OD600 measurements were taken by a Cytation-5 multimode microplate reader. Percent inhibition of BlaR and bacterial growth were calculated using absorbance unit (AU) and OD600 values of each sample entered into this formula: […]

Series [2] is described as follows: PK study, plasma and thighs. In kind it is in vivo, mice. Conditions: mouse; for Cmax at 4 h: sc, single subcutaneous dose 25 mg·kg^−1; for Cmax at 4 h / concentration at 8 h: mice. On the procedure:
Pharmacokinetics of Compound 4 and In Vivo Efficacy. We next evaluated the pharmacokinetics (PK) of compound 4 and its distribution to the thighs (sites of infection in the disease model) after a single subcutaneous dose at 25 mg·kg^−1 to mice.
Animals. Outbred 8-week-old female ICR mice for PK and neutropenic thigh infection studies were purchased from Envigo, Indianapolis, IN. The average weight of the mice for the PK study was 30 g (range 26.1 to 33.1 g); mice in the neutropenic thigh infection weights ranged from 24.2 to 37.7 g and were on average 29 g at the initiation of the study. Mice were housed in polycarbonate shoebox cages (for the PK study) or in disposable cages (for the infection studies) with ¼-inch corncob (The Andersons Inc., Maumee, OH) and Alpha-Dri (Shepherd Specialty Papers, Inc., Richland, MI) bedding with a 12-h light/dark cycle at 72° F. The animals were given food (Teklad 2918 irradiated extruded rodent diet) and water ad libitum. The food and water were autoclaved for the infection studies. All procedures were performed in accordance with and approved by the University of Notre Dame Institutional Animal Care and Use Committee.
PK study. Mice (n=15) were given a single subcutaneous dose of compound 4 at 25 mg·kg^−1 (100 μL of 7.5 mg-mL-1 solution in 20% DMSO/20% Tween-80/60% sterilized water). At 0.5, 1, 2, 4, and 8 h, mice were euthanized. Terminal blood was collected by cardiac puncture into heparinized (sodium heparin, Sigma-Aldrich, St. Louis, MO) syringes, and centrifuged (20,000×g at 4° C. for 15 min) to obtain plasma. A 60-μL aliquot of plasma was mixed with 60 μL of a 10 μg·mL^−1 solution of internal standard in acetonitrile. After centrifugation (17,000×g for 10 min), a 60-μL of the supernatant was taken for ultraperformance liquid chromatography (UPLC) analysis with UV detection.
Thighs were excised, weighed, and mixed with 100 μL of 10 μg·mL^−1 of internal standard in acetonitrile. Acetonitrile (900 μL) was added, and the mixture was homogenized on a Bullet blender (Next Advance, Inc., Averill Park, NY). After centrifugation at 17,000×g for 10 min, the supernatant was collected. The extraction was repeated two additional times. The combined supernatants were concentrated on a speed vac. The residue was dissolved in 100 μL of acetonitrile, and the mixture was centrifuged. A 60-μL aliquot of the supernatant was placed in an autosampler vial.
Plasma and thigh samples were analyzed on a Waters Acquity UPLC (Waters Corp., Milford, MA) coupled with a diode array detector with UV detection at 320-330 nm. A C18 Atlantis™ T3 column 2.1 i.d.×100 mm length 3 μm-particle size column was used at a flow rate of 0.5 mL/min. The gradient consisted of 0.5-min from 80% A/20% B to 65% A/35% B, 4.5-min to 25% A/75% B, 0.5-min to 65% A/35% B, 2-min to 80% A/20% B, where A=0.1% formic acid in water and B=0.1% formic acid in acetonitrile. Internal standard and compound 4 eluted at 4.2 and 4.6 min, respectively.
Calibration curves containing known concentrations of compound 4 (ranging from 0 to 200 μg·g^−1 tissue for thighs or 0 to 40 μg·mL^−1 for plasma) and internal standard in blank control thigh tissue or control plasma were prepared. Concentrations in the thighs and plasma were determined from the calibration curve regression parameters relative to internal standard.

Molecules are shown by their SMILES. Read-outs that look alike come from different tables or passages of the source.

In the case of `N#Cc1ccc2nc(SCB(O)O)n(Cc3ccc(C(F)(F)F)cc3C(F)(F)F)c2c1` [Compound 4, (((1-(2,4-bis(trifluoro-methyl)benzyl)-6-cyano-1H-benzo[d]imidazol-2-yl)thio)methyl)boronic acid], in series [1], the “% Inhibition of bacterial growth” value came to 25%. Further, in series [2] (plasma and thigh, plasma and thighs, 25 mg·kg^−1 sc, read-out: time at which maximum concentrations were achieved), the Tmax is 4 h. The Cmax at 4 h in series [2] (plasma, read-out: Maximum concentration in plasma) was found to be 8500 ng/mL; in series [2] (thigh, read-out: Maximum concentration in thighs), 28000 ng/mL. The concentration at 8 h in series [2] (plasma, 25 mg·kg^−1 sc, read-out: concentration at 8 h in plasma) amounted to 3900 ng/mL; in series [2] (thigh, 25 mg·kg^−1 sc, read-out: concentration at 8 h in thighs) it was 20000 ng/mL.
